One data set deals with T1, AMPK-α1 AT mutant (Homo sapiens, UniProt Q13131, A167T).
T1 construct: we expressed FLAG-tagged full-length AMPK-α1 either as the WT or the AT mutant; expressed in transfected cells; host or cells: HEK293 (transient transfection)
In words: AMPK activity of FLAG-tagged AMPK-α1 AT mutant expressed in HEK293 cells. The following applies: AT mutant FLAG-α1, 1 hr. It is filed as cell-based. From the text: The α1-KD was precipitated using anti-FLAG and endogenous AMPK complexes using anti-α1 antibody, and activity determined. Results (mean ± SD, n = 2) are expressed relative to activities in DMSO controls. (B) Western blots (n = 2) using the indicated antibodies; samples from experiment in (A). (C) DNAs encoding FLAG-tagged AMPK-α1 (WT or AT mutant) were expressed by transient transfection in HEK293 cells, the cells treated with increasing concentrations of SU6656 for 1 hr, AMPK complexes precipitated with anti-FLAG, and activity measured. Results (mean ± SD, n = 3) are expressed relative to the DMSO control. […] Results (mean ± SD, n = 3) are expressed relative to the DMSO control. **p < 0.01, ***p < 0.001, ****p < 0.0001, ^†††p < 0.001; ns, not significant.
To confirm that it acted by binding at the catalytic site, we expressed FLAG-tagged full-length AMPK-α1 either as the WT or the AT mutant.

The target of the next data set is T2, α2β2γ1 complex (Homo sapiens, UniProt P54619+P54646).
T2 construct: bacterially expressed α2-KD or a full-length α2β2γ1 complex, both of which had been phosphorylated using CaMKK2; made in house; host or cells: bacteria
T2 sequence (P54646 whole entry): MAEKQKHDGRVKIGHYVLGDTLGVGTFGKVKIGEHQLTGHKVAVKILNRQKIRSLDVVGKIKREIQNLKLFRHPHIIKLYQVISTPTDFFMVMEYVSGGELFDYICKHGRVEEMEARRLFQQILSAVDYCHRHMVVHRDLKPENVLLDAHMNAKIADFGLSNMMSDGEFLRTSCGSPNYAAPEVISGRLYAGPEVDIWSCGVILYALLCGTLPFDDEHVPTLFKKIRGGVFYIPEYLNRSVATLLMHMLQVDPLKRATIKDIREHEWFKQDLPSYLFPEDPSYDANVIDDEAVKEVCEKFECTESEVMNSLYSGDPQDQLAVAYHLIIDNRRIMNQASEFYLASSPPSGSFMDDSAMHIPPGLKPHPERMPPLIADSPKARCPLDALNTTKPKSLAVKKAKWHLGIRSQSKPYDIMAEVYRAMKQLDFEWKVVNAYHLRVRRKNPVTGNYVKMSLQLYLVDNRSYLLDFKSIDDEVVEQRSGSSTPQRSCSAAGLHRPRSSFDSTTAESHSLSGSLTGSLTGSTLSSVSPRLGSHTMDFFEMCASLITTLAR
T2 sequence (O43741 whole entry partner): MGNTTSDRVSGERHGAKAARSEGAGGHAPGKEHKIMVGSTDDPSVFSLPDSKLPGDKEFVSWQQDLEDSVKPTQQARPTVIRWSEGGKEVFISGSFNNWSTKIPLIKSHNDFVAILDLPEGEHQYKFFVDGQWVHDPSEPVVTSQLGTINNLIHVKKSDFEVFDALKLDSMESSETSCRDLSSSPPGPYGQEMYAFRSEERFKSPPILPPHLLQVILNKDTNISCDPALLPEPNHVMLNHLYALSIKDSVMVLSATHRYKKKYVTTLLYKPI
T2 sequence (P54619 whole entry): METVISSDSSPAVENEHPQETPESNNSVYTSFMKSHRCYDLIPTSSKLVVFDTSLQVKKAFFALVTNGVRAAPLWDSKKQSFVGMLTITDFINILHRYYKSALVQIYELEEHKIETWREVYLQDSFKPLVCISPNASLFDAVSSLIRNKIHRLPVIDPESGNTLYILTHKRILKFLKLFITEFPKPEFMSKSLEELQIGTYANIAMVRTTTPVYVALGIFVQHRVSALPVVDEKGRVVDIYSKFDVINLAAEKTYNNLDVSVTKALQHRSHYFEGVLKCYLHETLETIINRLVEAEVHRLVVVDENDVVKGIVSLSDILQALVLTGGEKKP
The experiment in a line: Inactivation of full-length α2β2γ1 complex by PP2Cα. It is filed as biochemical. The settings on record: 5 mM ATP, AMP 2 mM, SU6656 up to 10 μM.

The subject of the next data set is AMPK. It is filed as cell-based, mouse. The following applies: SYF cells, 1 hr. Here is the method: We next tested the effect of SU6656 in SYF cells, which are mouse embryo fibroblasts (MEFs) with null alleles for Src, Yes, and Fyn, the three Src kinases expressed in MEFs ([Klinghoffer et al., 1999]).
Top: AMPK activity (mean ± SEM, n = 4); bottom: western blots showing phosphorylation of Thr172 on AMPK, and of ERK1/2, in cells treated with DMSO (control), SU6656 (100 μM), or PP2 (100 nM) (n = 2). (B) As (A), but in SYF cells. (C) HeLa cells were transfected with DNAs encoding GFP alone, or GFP fused to WT, Y261F/Y365F (FF), or Y36F/Y261F/Y365F (FFF) mutants of LKB1; cells were treated with increasing concentrations of SU6656 for 1 hr and AMPK activity determined (mean ± SEM, n = 4). See also Figure S1. (D) HEK293 cells were transfected with DNAs encoding FLAG-tagged AMPK-α2 with or without a Y436F mutation. Cells were incubated with DMSO (control), 100 μM SU6656, 10 mM phenformin, or 10 μM A23187 for 1 hr; AMPK complexes were immunoprecipitated using anti-FLAG antibody and assayed. The top panels show kinase activities (mean ± SD, n = 3); the bottom panels show blots from the same experiment (n = 2). In all panels, asterisks indicate significant differences from DMSO controls; in (D), there were no significant differences between the WT and Y463F mutant. **p < 0.01, ****p < 0.0001. […]

Another data set addresses T3, LKB1 (Homo sapiens, UniProt Q15831).
T3 construct: made in house; host or cells: Sf9 cells
In words: LKB1 assay using LKBtide peptide substrate. The following applies: alternative peptide substrate (LKBtide). It is filed as biochemical. Here is the method:
We next used unphosphorylated α2-KD and tested the effect of SU6656 on its activation and phosphorylation by LKB1. […] There was no effect of SU6656 when LKB1 was assayed using an alternative peptide substrate (Figure S3), confirming that it acts by binding to AMPK rather than to LKB1. The half-maximal effect of SU6656 on α2-KD activation was at 0.20 ± 0.02 μM, close to the IC50 for inhibition of catalytic activity (0.22 ± 0.02 μM).
Endogenous AMPK was immunoprecipitated using the specified antibodies (for total AMPK, an equal mixture of anti-α1 and –α2 antibodies) and assayed at 200 μM ATP ([Hardie et al., 2000], [Towler et al., 2008]) using the AMARA peptide ([Dale et al., 1995]) as substrate, except for assays of allosteric activation by AMP (Figure 5A) where the SAMS peptide was used as substrate with 2 mM ATP ([Gowans et al., 2013]). The AMPK-related kinases SIK1, SIK2, SIK3, SNARK, MARK2/3 and MARK4 were immunoprecipitated and assayed as previously described ([Lizcano et al., 2004]) in lysates of Hela cells stably expressing LKB1 ([Fogarty et al., 2010]). LKB1 was assayed using the LKBtide peptide as substrate ([Sakamoto et al., 2004]).
LKB1 was assayed using the LKBtide peptide as substrate as
described in the Star Methods section.

Details of data set [1]: method as in Strumberg et al., 2007. The settings on record: human clinical trials; ref Strumberg et al., 2007; cited from earlier work.

T1 sequence (Q13131 whole entry A167T): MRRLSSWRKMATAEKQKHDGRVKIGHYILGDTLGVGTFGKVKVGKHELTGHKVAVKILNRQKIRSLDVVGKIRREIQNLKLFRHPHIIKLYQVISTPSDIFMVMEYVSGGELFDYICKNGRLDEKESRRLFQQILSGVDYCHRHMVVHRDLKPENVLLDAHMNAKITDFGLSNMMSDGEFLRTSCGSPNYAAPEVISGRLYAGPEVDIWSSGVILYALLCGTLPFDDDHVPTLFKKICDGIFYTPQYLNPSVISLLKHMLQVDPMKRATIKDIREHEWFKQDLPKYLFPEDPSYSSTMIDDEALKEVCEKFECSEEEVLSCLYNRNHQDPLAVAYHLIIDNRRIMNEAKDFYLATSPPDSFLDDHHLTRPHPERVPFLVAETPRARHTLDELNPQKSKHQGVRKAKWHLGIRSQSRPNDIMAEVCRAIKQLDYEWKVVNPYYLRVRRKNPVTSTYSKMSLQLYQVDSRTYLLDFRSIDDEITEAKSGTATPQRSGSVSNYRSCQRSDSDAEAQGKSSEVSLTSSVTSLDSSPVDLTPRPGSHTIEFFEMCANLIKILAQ
T1 sequence (P54619 whole entry partner): as the sequence (P54619 whole entry) above
T3 sequence (Q15831 whole entry): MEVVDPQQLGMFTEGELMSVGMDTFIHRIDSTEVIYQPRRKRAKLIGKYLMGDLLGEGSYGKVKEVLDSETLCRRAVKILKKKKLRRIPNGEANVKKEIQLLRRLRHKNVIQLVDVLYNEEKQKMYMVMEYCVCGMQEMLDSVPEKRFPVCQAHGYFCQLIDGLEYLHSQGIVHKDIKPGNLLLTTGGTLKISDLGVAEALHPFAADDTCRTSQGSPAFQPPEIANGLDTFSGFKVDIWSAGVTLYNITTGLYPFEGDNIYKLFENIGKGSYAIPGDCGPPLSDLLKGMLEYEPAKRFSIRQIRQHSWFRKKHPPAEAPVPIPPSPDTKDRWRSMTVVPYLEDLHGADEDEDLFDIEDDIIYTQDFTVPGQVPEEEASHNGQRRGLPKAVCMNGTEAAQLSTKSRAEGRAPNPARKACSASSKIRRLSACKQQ
T3 sequence (Q7RTN6 whole entry partner): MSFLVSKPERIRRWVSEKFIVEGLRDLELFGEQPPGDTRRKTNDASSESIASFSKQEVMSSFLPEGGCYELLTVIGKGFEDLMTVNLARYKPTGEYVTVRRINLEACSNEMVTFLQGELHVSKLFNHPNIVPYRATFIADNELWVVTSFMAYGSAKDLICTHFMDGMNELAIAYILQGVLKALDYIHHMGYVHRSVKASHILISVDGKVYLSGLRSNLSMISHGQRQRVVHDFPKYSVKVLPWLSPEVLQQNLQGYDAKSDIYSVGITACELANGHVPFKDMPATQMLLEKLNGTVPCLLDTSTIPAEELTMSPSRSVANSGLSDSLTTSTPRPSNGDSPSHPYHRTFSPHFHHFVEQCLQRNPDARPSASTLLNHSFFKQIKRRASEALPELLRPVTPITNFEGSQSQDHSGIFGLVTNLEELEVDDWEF
T3 sequence (Q9Y376 whole entry partner): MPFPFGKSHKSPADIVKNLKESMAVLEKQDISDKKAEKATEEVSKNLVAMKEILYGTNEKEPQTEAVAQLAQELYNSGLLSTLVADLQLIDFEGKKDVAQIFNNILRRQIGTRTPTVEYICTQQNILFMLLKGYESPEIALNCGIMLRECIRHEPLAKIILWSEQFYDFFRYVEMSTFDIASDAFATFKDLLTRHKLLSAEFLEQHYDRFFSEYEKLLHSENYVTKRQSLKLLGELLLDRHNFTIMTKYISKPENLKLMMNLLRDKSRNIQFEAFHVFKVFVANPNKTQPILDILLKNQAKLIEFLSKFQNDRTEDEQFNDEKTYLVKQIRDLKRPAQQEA

With `CN(C)S(=O)(=O)c1ccc2c(c1)/C(=C/c1cc3c([nH]1)CCCC3)C(=O)N2` [SU6656], the AMPK activity result at AMPK-α1 AT mutant is listed as “greatly reduced”. The “protection against inactivation by PP2Cα” value on α2β2γ1 complex was “did not protect against inactivation”. Further, in the data set on AMPK, the “AMPK activity / Thr172 phosphorylation” value is “still activated and increased Thr172 phosphorylation of AMPK”. In addition, the “effect on LKB1 activity” value on LKB1 is recorded as “no effect”.

Regarding `CNC(=O)c1cc(Oc2ccc(NC(=O)Nc3ccc(Cl)c(C(F)(F)F)c3)cc2)ccn1` [sorafenib], the peak plasma sorafenib in data set [1] was 6 to 20 µM.

Values taken from publication PMC5522529, “Mechanisms of Paradoxical Activation of AMPK by the Kinase Inhibitors SU6656 and Sorafenib” (Cell Chemical Biology, 2017).
